Data from PubChem BioAssay AID1963968 (Molecular Pharmacology Branch, DTP, NCI, 2024).

Test system: 945468-187-T-J3-PDC spheroids with HUVEC/MSC, viability
Test: Anticancer human tumor 945468-187-T-J3-PDC patient-derived rectal carcinoma cell line growth inhibition [PI3K]
Conditions: for IC50: curve of first compound; for viability, T/C: stronger effect = lower value
Summary of the method: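 Stroma-containing spheroids: tumor line, pooled-donor HUVEC, hMSC. Treatments: targeted agents with PI3K inhibitors. Dosing: clinically relevant, half-log spacing, 10 microM ceiling without known Cmax. Read-out: cell viability.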

[1] = second compound 0.0316 µM, first compound 0.0316 µM
[2] = second compound 0.0316 µM, first compound 0.1 µM
[3] = second compound 0.1 µM, first compound 0.0316 µM
[4] = second compound 0.1 µM, first compound 0.1 µM
[5] = second compound 0.316 µM, first compound 0.0316 µM
[6] = second compound 0.316 µM, first compound 0.1 µM
[7] = second compound 1 µM, first compound 0.0316 µM
[8] = second compound 1 µM, first compound 0.1 µM
[9] = second compound 3.16 µM, first compound 0.0316 µM
[10] = second compound 3.16 µM, first compound 0.1 µM
[11] = second compound 10 µM, first compound 0.0316 µM
[12] = second compound 10 µM, first compound 0.1 µM
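Note: spheroids exposed to agents for 7 days before viability read.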
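Throughout, for viability, T/C: 100% = DMSO vehicle control viability.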

Structure (SMILES): CC(C)n1nc(-c2ccc3oc(N)nc3c2)c2c(N)ncnc21 + Cc1nc(NC(=O)N2CCCC2C(N)=O)sc1-c1ccnc(C(C)(C)C(F)(F)F)c1
- IC50 (second compound 0.0316 µM): > 0.1 µM
- IC50 (second compound 0.1 µM): > 0.1 µM
- IC50 (second compound 0.316 µM): > 0.1 µM
- IC50 (second compound 1 µM): 0.077 µM
- IC50 (second compound 3.16 µM): 0.0302 µM
- IC50 (second compound 10 µM): 0.0107 µM
- viability, T/C (second compound 0.0316 µM, first compound 0.000316 µM): 105%
- viability, T/C (second compound 0.0316 µM, first compound 0.001 µM): 118%
- viability, T/C (second compound 0.0316 µM, first compound 0.00316 µM): 98.8%
- viability, T/C (second compound 0.0316 µM, first compound 0.01 µM): 114%
- viability, T/C [1]: 127%
- viability, T/C [2]: 65.5%
- viability, T/C (second compound 0.1 µM, first compound 0.000316 µM): 109%
- viability, T/C (second compound 0.1 µM, first compound 0.001 µM): 109%
- viability, T/C (second compound 0.1 µM, first compound 0.00316 µM): 95.4%
- viability, T/C (second compound 0.1 µM, first compound 0.01 µM): 115%
- viability, T/C [3]: 118%
- viability, T/C [4]: 54.5%
- viability, T/C (second compound 0.316 µM, first compound 0.000316 µM): 113%
- viability, T/C (second compound 0.316 µM, first compound 0.001 µM): 104%
- viability, T/C (second compound 0.316 µM, first compound 0.00316 µM): 97.5%
- viability, T/C (second compound 0.316 µM, first compound 0.01 µM): 121%
- viability, T/C [5]: 111%
- viability, T/C [6]: 53.3%
- viability, T/C (second compound 1 µM, first compound 0.000316 µM): 116%
- viability, T/C (second compound 1 µM, first compound 0.001 µM): 114%
- viability, T/C (second compound 1 µM, first compound 0.00316 µM): 101%
- viability, T/C (second compound 1 µM, first compound 0.01 µM): 109%
- viability, T/C [7]: 84%
- viability, T/C [8]: 39.6%
- viability, T/C (second compound 3.16 µM, first compound 0.000316 µM): 108%
- viability, T/C (second compound 3.16 µM, first compound 0.001 µM): 104%
- viability, T/C (second compound 3.16 µM, first compound 0.00316 µM): 102%
- viability, T/C (second compound 3.16 µM, first compound 0.01 µM): 77.2%
- viability, T/C [9]: 49.9%
- viability, T/C [10]: 29.7%
- viability, T/C (second compound 10 µM, first compound 0.000316 µM): 68%
- viability, T/C (second compound 10 µM, first compound 0.001 µM): 53.3%
- viability, T/C (second compound 10 µM, first compound 0.00316 µM): 64.3%
- viability, T/C (second compound 10 µM, first compound 0.01 µM): 50.2%
- viability, T/C [11]: 31.8%
- viability, T/C [12]: 22.7%

Structure (SMILES): CC1(C)CCC(CN2CCN(c3ccc(C(=O)NS(=O)(=O)c4ccc(NCC5CCOCC5)c([N+](=O)[O-])c4)c(Oc4cnc5[nH]ccc5c4)c3)CC2)=C(c2ccc(Cl)cc2)C1 + Cc1nc(NC(=O)N2CCCC2C(N)=O)sc1-c1ccnc(C(C)(C)C(F)(F)F)c1
- IC50 (second compound 0.0316 µM): 6.84 µM
- IC50 (second compound 0.1 µM): 6.42 µM
- IC50 (second compound 0.316 µM): 6.58 µM
- IC50 (second compound 1 µM): 6.68 µM
- IC50 (second compound 3.16 µM): 6.32 µM
- IC50 (second compound 10 µM): 4.27 µM
- viability, T/C [1]: 95.4%
- viability, T/C [2]: 109%
- viability, T/C (second compound 0.0316 µM, first compound 0.316 µM): 97.5%
- viability, T/C (second compound 0.0316 µM, first compound 1 µM): 120%
- viability, T/C (second compound 0.0316 µM, first compound 3.16 µM): 125%
- viability, T/C (second compound 0.0316 µM, first compound 10 µM): 20.8%
- viability, T/C [3]: 100%
- viability, T/C [4]: 108%
- viability, T/C (second compound 0.1 µM, first compound 0.316 µM): 101%
- viability, T/C (second compound 0.1 µM, first compound 1 µM): 117%
- viability, T/C (second compound 0.1 µM, first compound 3.16 µM): 123%
- viability, T/C (second compound 0.1 µM, first compound 10 µM): 12.5%
- viability, T/C [5]: 107%
- viability, T/C [6]: 112%
- viability, T/C (second compound 0.316 µM, first compound 0.316 µM): 113%
- viability, T/C (second compound 0.316 µM, first compound 1 µM): 120%
- viability, T/C (second compound 0.316 µM, first compound 3.16 µM): 130%
- viability, T/C (second compound 0.316 µM, first compound 10 µM): 12.2%
- viability, T/C [7]: 117%
- viability, T/C [8]: 115%
- viability, T/C (second compound 1 µM, first compound 0.316 µM): 106%
- viability, T/C (second compound 1 µM, first compound 1 µM): 113%
- viability, T/C (second compound 1 µM, first compound 3.16 µM): 114%
- viability, T/C (second compound 1 µM, first compound 10 µM): 15.8%
- viability, T/C [9]: 116%
- viability, T/C [10]: 101%
- viability, T/C (second compound 3.16 µM, first compound 0.316 µM): 101%
- viability, T/C (second compound 3.16 µM, first compound 1 µM): 122%
- viability, T/C (second compound 3.16 µM, first compound 3.16 µM): 104%
- viability, T/C (second compound 3.16 µM, first compound 10 µM): 14.5%
- viability, T/C [11]: 70.7%
- viability, T/C [12]: 59%
- viability, T/C (second compound 10 µM, first compound 0.316 µM): 63.8%
- viability, T/C (second compound 10 µM, first compound 1 µM): 68.4%
- viability, T/C (second compound 10 µM, first compound 3.16 µM): 63.3%
- viability, T/C (second compound 10 µM, first compound 10 µM): 12.1%
